The values below come from patent publication US5093363A, “2,4,6-substituted phenol derivatives” (priority 1989, dated 1992).

Structures are written as SMILES.

The target of test [1] is T1, HMG-CoA reductase (Rattus norvegicus, UniProt P51639).
T1 construct: Liver microsomes was prepared by using Sprague-Dawley rats; from tissue; host or cells: liver microsomes of Sprague-Dawley rats fed 2% cholestyramine diet
T1 sequence (P51639 1-887): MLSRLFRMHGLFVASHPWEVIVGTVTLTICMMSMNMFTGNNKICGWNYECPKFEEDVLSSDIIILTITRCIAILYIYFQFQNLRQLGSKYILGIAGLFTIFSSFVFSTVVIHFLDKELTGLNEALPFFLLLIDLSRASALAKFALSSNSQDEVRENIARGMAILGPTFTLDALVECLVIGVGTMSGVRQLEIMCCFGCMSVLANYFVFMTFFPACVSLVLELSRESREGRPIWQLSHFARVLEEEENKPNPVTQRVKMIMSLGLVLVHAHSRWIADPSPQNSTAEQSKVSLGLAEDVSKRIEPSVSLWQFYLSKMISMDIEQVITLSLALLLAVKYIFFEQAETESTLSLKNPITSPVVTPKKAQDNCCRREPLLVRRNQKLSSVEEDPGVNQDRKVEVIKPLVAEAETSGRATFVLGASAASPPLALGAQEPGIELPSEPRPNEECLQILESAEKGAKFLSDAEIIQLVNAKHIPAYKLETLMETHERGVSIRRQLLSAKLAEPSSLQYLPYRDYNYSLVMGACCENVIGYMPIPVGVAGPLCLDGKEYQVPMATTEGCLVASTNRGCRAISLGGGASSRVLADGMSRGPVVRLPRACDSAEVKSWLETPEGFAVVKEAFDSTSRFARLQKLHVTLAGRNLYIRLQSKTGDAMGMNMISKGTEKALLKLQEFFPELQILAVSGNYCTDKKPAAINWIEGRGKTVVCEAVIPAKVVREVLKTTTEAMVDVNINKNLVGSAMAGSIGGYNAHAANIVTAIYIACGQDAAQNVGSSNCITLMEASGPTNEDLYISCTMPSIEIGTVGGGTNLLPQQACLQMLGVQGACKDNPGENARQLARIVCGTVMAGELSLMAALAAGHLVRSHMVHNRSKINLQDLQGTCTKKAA
Put plainly: HMG-CoA reductase inhibitory activity (rat liver microsome). Format: biochemical, rat (Sprague-Dawley). Particulars: [3-^14 C]HMG-CoA, 37° C., 30 minutes, read-out: HMG-CoA reductase inhibitory activity IC50 (50% inhibition concentration). The procedure: [HMG-CoA reductase inhibitory activity]
(1a) Preparation of rat liver microsome
Liver microsomes was prepared by using Sprague-Dawley rats which freely take a general diet containing 2% cholestyramine and water for 2 weeks according to the report of Kuroda et al (Biochim. Biophys. Acta., 486, page 70, 1977). The microsome fraction obtained by centrifuging at 105000× g was washed with a solution containing 15 mM nicotinamide and 2 mM magnesium chloride (in 100 mM potassium phosphate buffer solution, pH 7.4) once. Then, thereto was added equal parts of the buffer solution containing nicotinamide and magnesium chloride to the weight of used liver. The mixture was homogenized, cooled to -80° C., and preserved.
(1b) Measurement of HMG-CoA reductase inhibitory activity
At 0° C., 100 μl of rat liver microsome preserved at -80° C. was melted and diluted with 0.7 ml of cool potassium phosphate buffer (100 mM, pH 7.4). Thereto was added 0.8 ml of 50 mM EDTA solution (the above-mentioned potassium phosphate buffer solution) and 0.4 ml of 100 mM dithiothreitol solution (the above-mentioned potassium phosphate buffer solution) and the mixture was maintained at 0° C. To 1.675 ml of the microsome solution was added 670 μl of 25 mM NADPH solution (the above-mentioned potassium phosphate buffer solution). […] By means of a scintillation counter, specific activity was measured.
Background: Microsomes from liver hold many membrane-bound enzymes, among them those of drug oxidation.

The subject of test [2] is production of peroxidized lipids in a homogenate of rat brain. As to the kind of experiment: Suppression of production of peroxidized lipids in a homogenate of rat brain (TBA method). Format: biochemical, rat (SD strain). As to conditions: 37° C., 30 minutes. On the procedure: [Suppression of production of peroxidized lipids in a homogenate of rat brain]
SD strain rats (body weight, about 200 g) were sacrificed by cutting down their heads, and the brains were taken out. The brains were homogenated with a 4-fold amount of 0.05 M phosphate-sodium chloride buffer (pH 7.4) and centrifuged at 1,000× g for 10 minutes. The supernatant was kept at -80° C. for storage.
The supernatant was diluted with a 2-fold amount of the same phosphate-sodium chloride buffer as above, and 0.45 ml of the dilution was combined with 30 μl of ethanol per se (vehicle) or ethanol solution containing a test compound, followed by incubation at 37° C. for 30 minutes. The reaction was terminated by addition of a solution of 0.1% butylhydroxytoluene (BHT) (20 μl) in 25% metaphosphoric acid (125 μl). After deproteinization, the peroxidized lipids in the supernatant were measured by the thiobarbituric acid (TBA) method according to the description by Ohkawa et al.: in Anal. Biochem., Vol. 95, page 351 (1979). The amount of peroxidized lipids produced was compared with that in the vehicle applied group and expressed in % control.

In test [3] the test system is cholesterol synthesis. Particulars: disclosed by Nakatani, Farmashia 1988; cited from earlier work.
[4] abbreviates: concentration of test compound 0.01 mM.
Where [5] appears, read: concentration of test compound 0.1 mM.

For the molecule `CC(C)(C)c1cc(SC[C@@H](O)C[C@@H](O)CC(=O)O)cc(C(C)(C)C)c1O` [Compound No. 3, Sodium (3R,5S)-6-[(3,5-di-tert-butyl-4-hydroxyphenyl)thio]-3,5-dihydroxyhexanoate], the IC50 in test [1] amounted to 54 µM. In addition, the “Inhibitory rate (% control)” value in test [2] (setting [4]) is reported as 35.7 % control; in test [2] (setting [5]) it was 94.9 % control.

Take `CC[C@H](C)C(=O)O[C@H]1C[C@@H](C)C=C2C=C[C@H](C)[C@H](CC[C@@H]3C[C@@H](O)CC(=O)O3)[C@H]21` [Lovastatin]: in test [1], the IC50 was 0.024 µM. Further, the inhibit cholesterol synthesis entry in test [3] is on record as “inhibit cholesterol synthesis”.

Regarding `CC[C@H](C)C(=O)O[C@H]1CCC=C2C=C[C@H](C)[C@H](CC[C@@H]3C[C@@H](O)CC(=O)O3)[C@H]21` [Mevastatin], in test [3], the inhibit cholesterol synthesis result is given as “inhibit cholesterol synthesis”.

For the molecule `CC[C@H](C)C(=O)O[C@H]1C[C@H](O)C=C2C=C[C@H](C)[C@H](CC[C@@H](O)C[C@@H](O)CC(=O)O)[C@H]21` [Pravastatin], the inhibit cholesterol synthesis entry in test [3] was “inhibit cholesterol synthesis”.

For `CC(C)(Sc1cc(C(C)(C)C)c(O)c(C(C)(C)C)c1)Sc1cc(C(C)(C)C)c(O)c(C(C)(C)C)c1` [Probucol], the “Inhibitory rate (% control)” value in test [2] (setting [4]) turned out to be 27.8 % control; in test [2] (setting [5]), 58.3 % control.

Consider `CCC(C)(C)C(=O)O[C@H]1C[C@@H](C)C=C2C=C[C@H](C)[C@H](CC[C@@H]3C[C@@H](O)CC(=O)O3)[C@H]21` [Simarastatin], for which, in test [3], the inhibit cholesterol synthesis result was “inhibit cholesterol synthesis”.
